Reference: article PMC7024175, “In Depth Analysis of Kinase Cross Screening Data to Identify CAMKK2 Inhibitory Scaffolds” (Molecules, 2020)
Read-outs that look alike come from different tables or passages of the source.

Target: T1, CAMKK2 (Homo sapiens, UniProt Q96RR4)
T1 construct: made in house
Test: CAMKK2 enzyme assay (radiometric, CaMKKtide)
Type: biochemical
Conditions: for remaining activity at 0.01 µM / remaining activity at 0.1 µM / remaining activity at 1 µM: read-out: PoC (activity remaining)

[1] = 8-point full dose response, read-out: IC50

T1 sequence (Q96RR4 whole entry): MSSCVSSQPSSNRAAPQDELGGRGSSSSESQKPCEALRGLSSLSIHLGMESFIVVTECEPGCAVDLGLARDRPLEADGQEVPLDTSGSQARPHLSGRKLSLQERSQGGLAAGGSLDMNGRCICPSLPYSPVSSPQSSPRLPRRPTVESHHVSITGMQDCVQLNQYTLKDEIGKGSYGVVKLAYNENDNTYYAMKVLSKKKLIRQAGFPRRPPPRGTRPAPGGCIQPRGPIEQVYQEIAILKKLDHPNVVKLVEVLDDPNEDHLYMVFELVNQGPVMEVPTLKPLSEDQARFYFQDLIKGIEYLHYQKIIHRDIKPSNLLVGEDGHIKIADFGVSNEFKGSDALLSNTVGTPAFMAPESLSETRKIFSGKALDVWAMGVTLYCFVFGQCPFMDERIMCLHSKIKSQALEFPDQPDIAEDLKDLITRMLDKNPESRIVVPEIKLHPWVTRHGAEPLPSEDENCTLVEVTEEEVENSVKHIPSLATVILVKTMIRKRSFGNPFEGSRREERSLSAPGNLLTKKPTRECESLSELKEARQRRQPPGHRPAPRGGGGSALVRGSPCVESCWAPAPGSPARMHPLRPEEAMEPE
Protocol: CAMKK2 activity was determined by measuring the transfer of radiolabeled phosphate from [γ-^32P]-ATP to a synthetic peptide substrate (CaMKKtide) as previously described [49]. Briefly, purified recombinant CAMKK2 (100 pM) was incubated in assay buffer (50 mM HEPES [pH 7.4], 1 mM DTT, 0.02% [v/v] Brij-35) containing 200 μM CaMKKtide (Genscript), 100 μM CaCl2, 1 μM CaM (Sigma-Aldrich, Castle Hill, NSW, Australia) 200 μM [γ-^32P]-ATP (Perkin Elmer, Boston, MA, USA), 5 mM MgCl2 (Sigma-Aldrich, Castle Hill, NSW, Australia) and various concentrations of inhibitors (0–1 μM) in a standard 30 μl assay for 10 min at 30 °C. Reactions were terminated by spotting 15 μl onto P81 phosphocellulose paper (GE Lifesciences, Paramatta, NSW, Australia) and washing extensively in 1% phosphoric acid (Sigma-Aldrich, Castle Hill, NSW, Australia). Radioactivity was quantified by liquid scintillation counting.

SMILES	remaining activity at 0.01 µM (0.01 µM inhibitor) [%]	remaining activity at 0.1 µM (0.1 µM inhibitor) [%]	remaining activity at 1 µM (1.0 µM inhibitor) [%]	further results
COc1cc(N2CCC(N(C)C)CC2)ccc1Nc1ncc(Cl)c(Nc2ccccc2P(C)(C)=O)n1 [ALK-IN-1]	62	34	3	IC50 [1]: 28 nM
COc1cc(N2CCC(N3CCN(C)CC3)CC2)ccc1Nc1ncc(Cl)c(Nc2ccccc2P(C)(C)=O)n1 [AP26113]				remaining activity at 0.01 µM: 60%; remaining activity at 0.1 µM: 20%; remaining activity at 1 µM: 2%
COc1cc(N2CCC(N)CC2)ccc1Nc1ncc(Cl)c(-c2c[nH]c3ccccc23)n1 [AZD 3463]				PoC (activity remaining) (0.01 µM inhibitor): 103%; PoC (activity remaining) (0.1 µM inhibitor): 74%; PoC (activity remaining) (1.0 µM inhibitor): 26%; IC50 [1]: 185 nM
CN1CC[C@H](c2c(O)cc(O)c3c(=O)cc(-c4ccccc4Cl)oc23)[C@H](O)C1 [Alvocidib]	102	62	29	
CC(C)[C@H](CO)Nc1nc(Nc2cc(N)cc(Cl)c2)c2ncn(C(C)C)c2n1 [Aminopurvalanol]	100	80	22	
CCN1CCN(c2ccc(Nc3cc(N(C)C(=O)Nc4c(Cl)c(OC)cc(OC)c4Cl)ncn3)cc2)CC1 [BGJ 398]	100	99	96	
CC[C@@H]1C(=O)N(C)c2cnc(Nc3ccc(C(=O)N[C@H]4CC[C@H](N5CCN(CC6CC6)CC5)CC4)cc3OC)nc2N1C(C)C [BI6727]	104	94	75	
O=C1Nc2cc(Br)ccc2/C1=C1/Nc2ccccc2/C1=N\O [BIO]				PoC (activity remaining) (0.01 µM inhibitor): 102%; PoC (activity remaining) (0.1 µM inhibitor): 100%; PoC (activity remaining) (1.0 µM inhibitor): 89%
O=C(NCCCNc1nc(Nc2cccc(NC(=O)N3CCCC3)c2)ncc1I)c1cccs1 [BX795]	97	80	33	
O=C(Nc1cccc(Nc2ncc(Br)c(NCCc3cnc[nH]3)n2)c1)N1CCCC1 [BX912]				PoC (activity remaining) (0.01 µM inhibitor): 100%; PoC (activity remaining) (0.1 µM inhibitor): 90%; PoC (activity remaining) (1.0 µM inhibitor): 26%
Cc1cc2c(F)c(Oc3ncnn4cc(OC[C@@H](C)O)c(C)c34)ccc2[nH]1 [Brivanib]	101	100	100	
Nc1nc(Nc2ccc(S(N)(=O)=O)cc2)nn1C(=S)Nc1c(F)cccc1F [CDK 1/2 Inhibitor III]				IC50: 19 nM; remaining activity at 0.01 µM: 69%; remaining activity at 0.1 µM: 17%; remaining activity at 1 µM: 3%
Cc1c[nH]c(-c2cnc(NCCNc3ccc(C#N)cn3)nc2-c2ccc(Cl)cc2Cl)n1 [CHIR99021]	98	101	96	
COCCOc1ccc2c(c1)ncn2-c1ccc2cccc(N3CCC(N)CC3)c2n1 [CP 673451]	88	46	17	IC50 [1]: 73 nM
COc1cc(N2CCOCC2)ccc1Nc1ncc(F)c(Nc2ccccc2NS(C)(=O)=O)n1 [CZC 25146]				PoC (activity remaining) (0.01 µM inhibitor): 96%; PoC (activity remaining) (0.1 µM inhibitor): 101%; PoC (activity remaining) (1.0 µM inhibitor): 93%
CC1(COc2ccc3c(c2)ncn3-c2ccc3cccc(N4CCC(N)CC4)c3n2)COC1 [Crenolanib]	118	92	47	
c1cc(-c2cnn3cc(-c4ccc(OCCN5CCCCC5)cc4)cnc23)ccn1 [Dorsomorphin]	100	96	58	
O=C(Nc1nc2cccc(-c3ccc(CN4CCS(=O)(=O)CC4)cc3)n2n1)C1CC1 [Filgotinib]	96	86	72	
C[C@@H](Oc1cc(-n2cnc3ccc(CN4CCN(C)CC4)cc32)sc1C(N)=O)c1ccccc1C(F)(F)F [GSK461364]	95	96	92	
O=C1NC(=O)/C(=C/c2ccc3nccc(-c4ccncc4)c3c2)S1 [GSK1059615]	92	81	34	
CCc1nc(C(N)=O)c(Nc2ccc(N3CCC(N4CCN(C)CC4)CC3)c(OC)c2)nc1NC1CCOCC1 [Gilteritinib]	84	74	18	IC50 [1]: 204 nM
Cn1c2ccccc2c2c3c(c4c5ccccc5n(CCC#N)c4c21)CNC3=O [Go6976]	97	92	80	
CCS(=O)(=O)Nc1ccc2c(c1)/C(=C(/Nc1ccc(CN3CCCCC3)cc1)c1ccccc1)C(=O)N2 [Hesperadin]	99	95	84	
